The values that follow come from US12396458B2, “Fused ring substituted aromatic compound and preparation method therefor, herbicidal composition, and use thereof” (Qingdao Kingagroot Chemical Compound Co., Ltd., priority 2020, dated 2025).

Common to all, as to assay: Weeding effect in post-emergence stage (greenhouse pot test)
Common to all, as to type: in vivo

One test deals with Alopecurus japonicus. The note with it: dose 15 g a.i./ha, 3 weeks after application, fresh weight control rate. An excerpt: (§1) The activity level criteria for plant damage (i.e., growth control rate) are as follows:
(§2) Level 5: growth control rate is above 85%; • Level 4: growth control rate is greater than or equal to 60% and less than 85%; • Level 3: growth control rate is greater than or equal to 40% and less than 60%; • Level 2: growth control rate is greater than or equal to 20% and less than 40%; • Level 1: growth control rate is greater than or equal to 5% and less than 20%; • Level 0: growth control rate is less than 5%.
(§3) The above growth control rates are fresh weight control rates.
(§4) Experiment on weeding effect in post-emergence stage:
(§5) Monocotyledonous and dicotyledonous weed seeds (Descurainia sophia, Capsella bursa-pastoris, Abutilon theophrasti, Galium aparine, Stellaria media, Lithospermum arvense, Rorippa indica, Alopecurus aequalis, Alopecurus japonicus, Eleusine indica, Beckmannia syzigachne, Sclerochloa dura, Phleum paniculatum, Veronica didyma Tenore, Bromus japonicus, Aegilops tauschii, Phalaris arundinacea, Amaranthus retrojlexus, Chenopodiaceae, Commelina communis, Sonchus arvensis, convolvulus arvensis, Cirsium setosum, Solanum nigrum, Acalypha australis, Digitaria sanguinalis, Echinochloa crusgalli, Setaria viridis, Setaria glauca, Leptochloa chinensis, Monochoria vaginalis, Sagittaria trifolia, Scirpus juncoides, Cyperus rotundus, Cyperus iria, Cyperus difformis, Fimbristylis, Portulaca oleracea, Xanthium sibiricum, Pharbitis nil, Conyza japonica, etc.) and major crop seeds (wheat, corn, rice, soybean, cotton, oilseed rape, millet, sorghum, potato, sesame, ricinus, etc.) were placed in plastic pots filled with soil, then covered with 0.5-2 cm of soil, allowed to grow in a good greenhouse environment. After 2 weeks of sowing, the test plants were treated in the 2-3 leaf stage. The tested compounds of the present invention were respectively dissolved in acetone, then added with Tween 80 and 1.5 liter/ha of emulsifiable concentrate of methyl oleate as synergist, diluted with a certain amount of water to obtain a solution with a certain concentration, and sprayed with a spray tower onto the plants. After the application, the plants were cultured for 3 weeks in the greenhouse, and then the experimental results of the weeding were counted. The doses of the used compounds were 500, 250, 125, 60, 15, 7.5 g a.i./ha, and the averages were obtained by repeating for three times.

The subject of a further test is Conyza japonica. As to conditions: post-emergence, dose 15 g a.i./ha, 3 weeks after application, fresh weight control rate.
Excerpt: as §1, §2, §3, §4, §5

The next test relates to Beckmannia syzigachne. The note with it: dose 15 g a.i./ha, 3 weeks after application, fresh weight control rate.
Excerpt: as §1, §2, §3, §4, §5

Another test relates to Capsella bursa-pastoris. As to conditions: dose 15 g a.i./ha, 3 weeks after application, fresh weight control rate.
Excerpt: as §1, §2, §3, §4, §5

As for `CC(C)=NOC(=O)C12CCCC1C(c1cc(-n3c(=O)n(C)c(=S)n(C)c3=O)c(F)cc1Cl)=NO2` (stereo not shown) [Compound 66], the “Activity level (growth control rate), Alopecurus japonicus” value (“Activity level … Alopecurus japonicus” below) in the test with Alopecurus japonicus is on record as 5 (Level 5: growth control rate is above 85%). Also, the “Activity level (growth control rate), Conyza japonica” value (shortened to “Activity level … Conyza japonica”) in the test with Conyza japonica is 4 (Level 4: growth control rate is greater than or equal to 60% and less than 85%). Further, the “Activity level (growth control rate), Beckmannia syzigachne” value (“Activity level … Beckmannia syzigachne” below) in the test with Beckmannia syzigachne was 4 (Level 4: growth control rate is greater than or equal to 60% and less than 85%). Also, the “Activity level (growth control rate), Capsella bursa-pastoris” value (“Activity level … Capsella bursa-pastoris” below) in the test on Capsella bursa-pastoris is reported as 5 (Level 5: growth control rate is above 85%).
On to `COC(=O)C12CCCC1C(c1cc(-n3c(=O)cc(C(F)(F)F)n(C)c3=O)c(F)cc1Cl)=NO2` (stereo not shown) [Compound 214], for which the “Activity level … Alopecurus japonicus” value in the test on Alopecurus japonicus is recorded as 5 (Level 5: growth control rate is above 85%). For the same compound, in the test on Conyza japonica, the “Activity level … Conyza japonica” value was 5 (Level 5: growth control rate is above 85%). Besides, in the test with Beckmannia syzigachne, the “Activity level … Beckmannia syzigachne” value was 5 (Level 5: growth control rate is above 85%). In addition, the “Activity level … Capsella bursa-pastoris” value in the test with Capsella bursa-pastoris was 5 (Level 5: growth control rate is above 85%).
For the compound `COC(=O)C12CCCC1C(c1cc(-n3c(=O)cc(C(F)(F)F)n(C)c3=O)c(F)cc1Br)=NO2` (stereo not shown) [Compound 210], in the test with Alopecurus japonicus, the “Activity level … Alopecurus japonicus” value was 5 (Level 5: growth control rate is above 85%). The “Activity level … Conyza japonica” value in the test with Conyza japonica is given as 5 (Level 5: growth control rate is above 85%). The “Activity level … Beckmannia syzigachne” value with Beckmannia syzigachne is reported as 5 (Level 5: growth control rate is above 85%). For the same compound, in the test on Capsella bursa-pastoris, the “Activity level … Capsella bursa-pastoris” value is recorded as 5 (Level 5: growth control rate is above 85%).
For `COC(=O)C12CCCC1C(c1cc(-n3c(=S)cc(C(F)(F)F)n(C)c3=O)c(F)cc1Cl)=NO2` (stereo not shown) [Compound 498], in the test on Alopecurus japonicus, the “Activity level … Alopecurus japonicus” value is 5 (Level 5: growth control rate is above 85%). In the test with Conyza japonica, the “Activity level … Conyza japonica” value was 4 (Level 4: growth control rate is greater than or equal to 60% and less than 85%). Further, the “Activity level … Beckmannia syzigachne” value in the test with Beckmannia syzigachne is 5 (Level 5: growth control rate is above 85%). The “Activity level … Capsella bursa-pastoris” value in the test with Capsella bursa-pastoris was 5 (Level 5: growth control rate is above 85%).
For the compound `COC(=O)C12CCCC1C(c1cc(-n3c(=O)n(C)c(=S)n(C)c3=O)c(F)cc1Cl)=NO2` (stereo not shown) [Compound 2], the “Activity level … Alopecurus japonicus” value in the test with Alopecurus japonicus is reported as 5 (Level 5: growth control rate is above 85%). Moreover, the “Activity level … Conyza japonica” value in the test with Conyza japonica is 5 (Level 5: growth control rate is above 85%). Also, the “Activity level … Beckmannia syzigachne” value with Beckmannia syzigachne was 5 (Level 5: growth control rate is above 85%). The “Activity level … Capsella bursa-pastoris” value with Capsella bursa-pastoris is 5 (Level 5: growth control rate is above 85%).
As for `Cn1c(C(F)(F)F)cc(=O)n(-c2cc(C3=NOC4(C(=O)Oc5ccccc5)CCCC34)c(Cl)cc2F)c1=O` (stereo not shown) [Compound 426], the “Activity level … Alopecurus japonicus” value in the test with Alopecurus japonicus is listed as 5 (Level 5: growth control rate is above 85%). In addition, the “Activity level … Conyza japonica” value in the test on Conyza japonica was 4 (Level 4: growth control rate is greater than or equal to 60% and less than 85%). The “Activity level … Beckmannia syzigachne” value in the test with Beckmannia syzigachne is 4 (Level 4: growth control rate is greater than or equal to 60% and less than 85%). The “Activity level … Capsella bursa-pastoris” value with Capsella bursa-pastoris is 5 (Level 5: growth control rate is above 85%).
Take `CCOC(=O)C12CCC(=NOC)C1C(c1cc(-n3c(=O)cc(C(F)(F)F)n(C)c3=O)c(F)cc1Cl)=NO2` (stereo not shown) [Compound 451]: the “Activity level … Alopecurus japonicus” value with Alopecurus japonicus is 4 (Level 4: growth control rate is greater than or equal to 60% and less than 85%). The “Activity level … Conyza japonica” value in the test on Conyza japonica was 4 (Level 4: growth control rate is greater than or equal to 60% and less than 85%). Also, in the test on Beckmannia syzigachne, the “Activity level … Beckmannia syzigachne” value was 4 (Level 4: growth control rate is greater than or equal to 60% and less than 85%). Besides, the “Activity level … Capsella bursa-pastoris” value in the test on Capsella bursa-pastoris is listed as 5 (Level 5: growth control rate is above 85%).
On to `CCOC(=O)C12ON=C(c3cc(-n4c(=O)cc(C(F)(F)F)n(C)c4=O)c(F)cc3Cl)C1CCC2CC` (stereo not shown) [Compound 477], for which the “Activity level … Alopecurus japonicus” value in the test on Alopecurus japonicus is reported as 5 (Level 5: growth control rate is above 85%). For the same compound, in the test with Conyza japonica, the “Activity level … Conyza japonica” value is 4 (Level 4: growth control rate is greater than or equal to 60% and less than 85%). Further, the “Activity level … Beckmannia syzigachne” value in the test on Beckmannia syzigachne is 4 (Level 4: growth control rate is greater than or equal to 60% and less than 85%). Further, the “Activity level … Capsella bursa-pastoris” value with Capsella bursa-pastoris is reported as 5 (Level 5: growth control rate is above 85%).
In the case of `COC(=O)C12CCC(C)C1C(c1cc(-n3c(=O)cc(C(F)(F)F)n(C)c3=O)c(F)cc1Cl)=NO2` (stereo not shown) [Compound 443], the “Activity level … Alopecurus japonicus” value in the test with Alopecurus japonicus is 5 (Level 5: growth control rate is above 85%). For the same compound, in the test with Conyza japonica, the “Activity level … Conyza japonica” value was 4 (Level 4: growth control rate is greater than or equal to 60% and less than 85%). In addition, in the test on Beckmannia syzigachne, the “Activity level … Beckmannia syzigachne” value is 5 (Level 5: growth control rate is above 85%). In addition, the “Activity level … Capsella bursa-pastoris” value with Capsella bursa-pastoris is 5 (Level 5: growth control rate is above 85%).
Turning to `CCOC(=O)C12CCCC1C(c1cc(-n3c(=O)cc(C(F)(F)F)n(C)c3=O)c(F)cc1Cl)=NO2` (stereo not shown) [Compound 215], the “Activity level … Alopecurus japonicus” value in the test with Alopecurus japonicus was 5 (Level 5: growth control rate is above 85%). Also, the “Activity level … Conyza japonica” value in the test on Conyza japonica was 4 (Level 4: growth control rate is greater than or equal to 60% and less than 85%). For the same compound, the “Activity level … Beckmannia syzigachne” value in the test with Beckmannia syzigachne is 5 (Level 5: growth control rate is above 85%). Further, in the test with Capsella bursa-pastoris, the “Activity level … Capsella bursa-pastoris” value was 5 (Level 5: growth control rate is above 85%).
With `C#CCOC(=O)C12CCCC1C(c1cc(-n3c(=O)n(C)c(=S)n(C)c3=O)c(F)cc1Cl)=NO2` (stereo not shown) [Compound 13], the “Activity level … Alopecurus japonicus” value in the test with Alopecurus japonicus is listed as 5 (Level 5: growth control rate is above 85%). Besides, in the test with Conyza japonica, the “Activity level … Conyza japonica” value was 4 (Level 4: growth control rate is greater than or equal to 60% and less than 85%). In addition, the “Activity level … Beckmannia syzigachne” value with Beckmannia syzigachne is 5 (Level 5: growth control rate is above 85%). Moreover, the “Activity level … Capsella bursa-pastoris” value in the test with Capsella bursa-pastoris is listed as 5 (Level 5: growth control rate is above 85%).
For the compound `CCOC(=O)C12ON=C(c3cc(-n4c(=O)cc(C(F)(F)F)n(C)c4=O)c(F)cc3Cl)C1CCC2Br` (stereo not shown) [Compound 474], in the test on Alopecurus japonicus, the “Activity level … Alopecurus japonicus” value is 4 (Level 4: growth control rate is greater than or equal to 60% and less than 85%). Moreover, the “Activity level … Conyza japonica” value with Conyza japonica is 4 (Level 4: growth control rate is greater than or equal to 60% and less than 85%). Moreover, in the test with Beckmannia syzigachne, the “Activity level … Beckmannia syzigachne” value is 4 (Level 4: growth control rate is greater than or equal to 60% and less than 85%). Besides, in the test with Capsella bursa-pastoris, the “Activity level … Capsella bursa-pastoris” value is reported as 5 (Level 5: growth control rate is above 85%).
For the compound `C=CCOC(=O)C12CCCC1C(c1cc(-n3c(=O)cc(C(F)(F)F)n(C)c3=O)c(F)cc1Cl)=NO2` (stereo not shown) [Compound 222], in the test on Alopecurus japonicus, the “Activity level … Alopecurus japonicus” value is 5 (Level 5: growth control rate is above 85%). For the same compound, in the test with Conyza japonica, the “Activity level … Conyza japonica” value is 4 (Level 4: growth control rate is greater than or equal to 60% and less than 85%). In addition, in the test with Beckmannia syzigachne, the “Activity level … Beckmannia syzigachne” value was 5 (Level 5: growth control rate is above 85%). The “Activity level … Capsella bursa-pastoris” value in the test on Capsella bursa-pastoris is reported as 5 (Level 5: growth control rate is above 85%).
